Results reported in the Kinase Knowledgebase extract (Sharma et al. 2016).
pIC50: −log10 of the molar value.

The molecules below were run against MAPK14 (UniProt Q16539).
Chain of MAPK14 (Q16539 whole entry, looked up): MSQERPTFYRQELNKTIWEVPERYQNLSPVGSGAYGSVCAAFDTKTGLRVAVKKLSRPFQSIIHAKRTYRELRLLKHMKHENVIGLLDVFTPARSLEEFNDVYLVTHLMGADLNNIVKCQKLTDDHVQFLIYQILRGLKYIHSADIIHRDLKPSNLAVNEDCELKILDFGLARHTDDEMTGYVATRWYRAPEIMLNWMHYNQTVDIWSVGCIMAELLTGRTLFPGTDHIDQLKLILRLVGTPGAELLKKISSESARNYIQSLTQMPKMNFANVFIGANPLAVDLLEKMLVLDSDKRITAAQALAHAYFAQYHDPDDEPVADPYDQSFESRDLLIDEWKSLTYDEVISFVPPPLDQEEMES

pIC50, > 4.30:
OCC(CO)n1cnc(-c2ccc(F)cc2)c1-c1ccnc(Oc2ccc(F)cc2)n1
C[C@@H](CO)n1cnc(-c2ccc(F)cc2)c1-c1ccnc(Oc2ccc(Cl)cc2)n1
OCC(CO)n1cnc(-c2ccc(F)cc2)c1-c1ccnc(Oc2ccccc2)n1
CC[C@@H](CO)n1cnc(-c2ccc(F)cc2)c1-c1ccnc(Oc2ccc(Cl)cc2)n1
OC[C@@H](c1ccccc1)n1cnc(-c2ccc(F)cc2)c1-c1ccnc(Oc2ccccc2)n1
CC[C@@H](CO)n1cnc(-c2ccc(F)cc2)c1-c1ccnc(Oc2ccccc2)n1
CC[C@H](CO)n1cnc(-c2ccc(F)cc2)c1-c1ccnc(Oc2ccc(Cl)cc2)n1
CC[C@H](CO)n1cnc(-c2ccc(F)cc2)c1-c1ccnc(Oc2ccc(C)cc2)n1
C[C@H](CCN1CCOCC1)n1cnc(-c2ccc(F)cc2)c1-c1ccnc(Oc2ccccc2)n1
CC[C@H](CO)n1cnc(-c2ccc(F)cc2)c1-c1ccnc(Oc2ccccc2)n1
C[C@@H](CO)n1cnc(-c2ccc(F)cc2)c1-c1ccnc(Oc2ccc(F)cc2)n1
Cc1ccc(Oc2nccc(-c3c(-c4ccc(F)cc4)ncn3[C@@H](C)CO)n2)cc1
C[C@H](CO)n1cnc(-c2ccc(F)cc2)c1-c1ccnc(Oc2ccc(F)cc2)n1
CC[C@@H](CO)n1cnc(-c2ccc(F)cc2)c1-c1ccnc(Oc2ccc(C)cc2)n1
Cc1ccc(Oc2nccc(-c3c(-c4ccc(F)cc4)ncn3C(CO)CO)n2)cc1
OC[C@H](c1ccccc1)n1cnc(-c2ccc(F)cc2)c1-c1ccnc(Oc2ccccc2)n1
